The text on series [1]: (§1) Definitions of “spreading coefficient to the liquid having surface tension of 50 mN/m” and “water solubility” of the liquid film cleavage agent, as specified in the first aspect and the second aspect, and measuring methods of surface tension (γw) of a liquid film (liquid having surface tension of 50 mN/m), surface tension (γo) of a liquid film cleavage agent, interfacial tension (γwo) between the liquid film and the liquid film cleavage agent, and water solubility of the liquid film cleavage agent are as described in the paragraphs {0015} to {0022} in WO 2016/098796.
Hereinafter, the present invention will be described more in detail with reference to Examples, but the present invention is not limited thereto. In addition, both terms “part” and “%” in the Examples are based on mass unless otherwise noted. […] In addition, a sign “-” in the following Tables means that neither an agent shown in a name of an item is used, nor the result has an applicable value in the item, or the like. Moreover, a leftward arrow “←” means that the content is the same as described in an adjacent column indicated by the arrow.
(§2) On the occasion, as a “liquid having surface tension of 50 mN/m,” a solution was used, in which the solution was prepared by adding, to 100 g of deionized water, 3.75 μL of POE sorbitan monolaurate (trade name “RHEODOL Super TW-L120,” manufactured by Kao Corporation) being a nonionic surface active substance by a micropipette (trade name “ACURA 825,” manufactured by Socorex Isba SA), and adjusting the surface tension to 50±1 mN/m. Moreover, the water solubility was measured by adding the agent for every 0.0001 g.

A short description of series [2]: Viscosity of liquid film cleavage agent. In kind it is physicochemical. The following applies: 25° C., RH 65%, average of three. On the procedure: First, 40 g of a liquid film cleavage agent is prepared. […] This operation is repeated three times, and an average value is adopted as the viscosity. In addition, when the liquid film cleavage agent is solid, the liquid film cleavage agent is heated to a temperature of a melting point of the liquid film cleavage agent plus 5° C. to induce phase transition into liquid, and the measurement is performed with keeping the temperature conditions.
As a result of measuring viscosity by the method shown in (Method for measuring viscosity of liquid film cleavage agent) described above, the viscosity of the liquid film cleavage agent was 163 cps.

Series [3] can be described thus: Spreading coefficient of liquid film cleavage agent. In kind it is physicochemical. Particulars: 25° C., RH 65%.
Excerpt: as §1
(§3) Hereinafter, the present invention will be described more in detail with reference to Examples, but the present invention is not limited thereto. In addition, both terms “part” and “%” in the Examples are based on mass unless otherwise noted. […]
as §2

Series [4] in a line: Interfacial tension of liquid film cleavage agent. In kind it is physicochemical. The following applies: 25° C., RH 65%.
Excerpt: as §1, §3, §2

A short description of series [5]: Surface tension of liquid film cleavage agent. In kind it is physicochemical. Particulars: 25° C., RH 65%.

Regarding POP alkyl ether [POP(15) alkyl ether], the Water solubility result in series [1] was “← g”. The Viscosity in series [2] was 129 cps. The “Spreading coefficient to liquid having surface tension of 50 mN/m” value in series [3] is 5.4 mN/m. Also, in series [4], the “Interfacial tension to liquid having surface tension of 50 mN/m” value was determined as 12.8 mN/m. This substance registered a Surface tension in series [5] of 31.8 mN/m.

Consider “POP-modified dimethyl silicone [POP(12)-modified dimethyl silicone]”, for which the Water solubility in series [1] is reported as 0.025 or less g.

In the case of PPG, the Water solubility in series [1] was 0.025 or less g.

Turning to epoxy-modified dimethyl silicone, the Water solubility result in series [1] is reported as “← g”.

The record behind these values is patent US20200383844A1, “ABSORBENT ARTICLE” (Kao Corporation, priority 2017, published 2020).
